Results from patent US20030232862A1 (priority 2002, published 2003).

Tests used:
[1] = biological target: cGMP PDE purified from human colon HT-29 cultured tumor cells (Homo sapiens, UniProt O76074); test: cGMP PDE inhibition assay; type: biochemical
[2] = Clinical tolerability of exisulind; type: in vivo
From the text: This effect is reversible, and liver enzymes return to normal levels when the administered dose of exisulind returns to the traditionally recommended level or when treatment is discontinued. The purpose of using combinations is to allow a lower dose of each to be used.

[3] = system: PKG activity in SW480 colon cancer cells; test: PKG activity assay in drug-treated SW480 cells; type: cell-based, human; details: SW480, 48 hrs, with and without added cGMP; exisulind 200-600 μM, E4021 0.1-10 μM
From the text: The novel PKG assay of this invention involves binding to solid phase plural amino acid sequences, each of which contain at least the cGMP-binding (cGB) domain and the phosphorylation site of phosphodiesterase type 5 (“PDE5”). That sequence is known and described in the literature below. […] One way to bind the PDE5 sequences to a solid phase is to express those sequences as a fusion protein of the PDE5 sequence and one member of an amino acid binding pair, and chemically link the other member of that amino acid binding pair to a solid phase (e.g., beads). One binding pair that can be used is glutathione S-transferase (“GST”) and glutathione (“GSH”), with the GST being expressed as a fusion protein with the PDE5 sequence described above, and the GSH bound covalently to the solid phase. In this fashion, the PDE5 sequence/GST fusion protein can be bound to a solid phase simply by passing a solution containing the fusion protein over the solid phase, as described below.
To assay a liquid sample believed to contain PKG using the PDE5-bound solid phase described above, the sample and the solid phase are mixed with phosphorylation buffer containing ^32P-γ-ATP. […]
For each control or drug cell lysate sample to be evaluated, the reaction is started by adding phosphorylation buffer containing 10 μCi ^32P-γ-ATP solution (200 μM ATP, 4.5 mM MgCl; 5 mM KH2PO4; 5 mM K2HPO4;) to each mixture. […]

SMILES: CC1=C(CC(=O)O)c2cc(F)ccc2/C1=C\c1ccc(S(C)(=O)=O)cc1 [Exisulind, 5-fluoro-2-methyl-1-(p-methylsulfonylbenzylidene)-3-indenylacetic acid]
- PDE Inhibition ([1]; Table 9 qualitative profile): + +
- inhibition at 10 µM ([1]; read-out: % Inhibition at 10 μM (cGMP PDE), 10 μM): 39%
- IC50 ([1]; read-out: IC50 for inhibition of cGMP PDE): 56 µM
- side effects at recommended dose ([2]; 300-400 mg/day): no clinically significant side effects
- effect at doses higher than the recommended therapeutic levels ([2]; reversible): elevated levels of liver enzymes
- PKG activity relative to control [3]: increase in a dose-dependent manner
